In US9459250B2, “Use of T1R3 venus flytrap region polypeptide to screen for taste modulators” (SENOMYX, INC., priority 2003, dated 2016):

molecular target: T1, T1R1/T1R3 (Homo sapiens (Human), UniProt Q7RTX0+Q7RTX1); assay: Umami FLIPR assay, HEK-Gα15 clone I-17 inducibly expressing T1R1/T1R3; type: cell-based; conditions: Table 1 Umami Amides
Method: A dose-dependent response curve was determined for a compound, and the compound concentration corresponding to 50% of the maximal response was derived from the curve, in one example.
Regarding umami tastants and enhancers, scores of their activities can be given as percentage of the maximum MSG intensity (%). In compound dose response, an EC50 can be calculated to reflect the potency of the compound as umami agonist.
(§1) HEK-Gα15 cells were engineered to inducibly express T1R1/T1R3 using the GeneSwitch system (Invitrogen). pGene-derived zeocin-resistant expression vectors for human T1R1 and T1R3 (plasmid SXV603 for T1R1 and SXV611 for T1R3) and a puromycin-resistant pSwitch-derived vector that carries the GeneSwitch protein (plasmid SXV628) were linearized and cotransfected into the HEK-Gα15 cell line. Zeocin-resistant and puromycin-resistant colonies were selected, expanded, induced with variable amounts of mifepristone, and tested by calcium imaging for responses to umami taste stimuli. […] After replacement with 50 μl PBS, stimulation was performed at room temperature by the addition of 50 μl PBS supplemented with different stimuli. The maximal fluorescence from four independent determinations were averaged, corrected for background fluorescence measured prior to compound addition, and normalized to the response to 0.002 mM ionomycin (CALBIOCHEM).

T1 sequence (Q7RTX1 21-841): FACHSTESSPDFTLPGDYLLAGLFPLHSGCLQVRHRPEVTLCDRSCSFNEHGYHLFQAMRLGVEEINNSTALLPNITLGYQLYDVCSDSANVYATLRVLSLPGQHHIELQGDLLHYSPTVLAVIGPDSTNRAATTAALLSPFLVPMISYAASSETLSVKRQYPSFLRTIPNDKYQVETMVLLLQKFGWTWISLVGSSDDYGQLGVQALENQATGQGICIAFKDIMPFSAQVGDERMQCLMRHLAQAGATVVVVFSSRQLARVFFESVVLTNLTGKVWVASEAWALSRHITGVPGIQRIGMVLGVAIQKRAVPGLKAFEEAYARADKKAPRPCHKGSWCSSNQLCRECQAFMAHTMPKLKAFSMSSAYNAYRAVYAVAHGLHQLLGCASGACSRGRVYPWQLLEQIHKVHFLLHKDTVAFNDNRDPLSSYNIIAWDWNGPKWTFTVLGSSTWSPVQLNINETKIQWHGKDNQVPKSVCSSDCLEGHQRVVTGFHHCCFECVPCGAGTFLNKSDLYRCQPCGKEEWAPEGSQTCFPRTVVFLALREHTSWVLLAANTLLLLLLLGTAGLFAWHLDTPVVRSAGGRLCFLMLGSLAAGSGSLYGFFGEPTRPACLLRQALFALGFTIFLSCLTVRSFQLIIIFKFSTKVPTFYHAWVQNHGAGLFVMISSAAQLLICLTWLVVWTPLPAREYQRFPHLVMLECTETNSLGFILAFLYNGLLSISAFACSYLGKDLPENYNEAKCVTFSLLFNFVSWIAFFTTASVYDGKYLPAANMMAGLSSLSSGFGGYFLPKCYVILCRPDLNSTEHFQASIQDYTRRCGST
T1 sequence (Q7RTX0 21-852 C757R): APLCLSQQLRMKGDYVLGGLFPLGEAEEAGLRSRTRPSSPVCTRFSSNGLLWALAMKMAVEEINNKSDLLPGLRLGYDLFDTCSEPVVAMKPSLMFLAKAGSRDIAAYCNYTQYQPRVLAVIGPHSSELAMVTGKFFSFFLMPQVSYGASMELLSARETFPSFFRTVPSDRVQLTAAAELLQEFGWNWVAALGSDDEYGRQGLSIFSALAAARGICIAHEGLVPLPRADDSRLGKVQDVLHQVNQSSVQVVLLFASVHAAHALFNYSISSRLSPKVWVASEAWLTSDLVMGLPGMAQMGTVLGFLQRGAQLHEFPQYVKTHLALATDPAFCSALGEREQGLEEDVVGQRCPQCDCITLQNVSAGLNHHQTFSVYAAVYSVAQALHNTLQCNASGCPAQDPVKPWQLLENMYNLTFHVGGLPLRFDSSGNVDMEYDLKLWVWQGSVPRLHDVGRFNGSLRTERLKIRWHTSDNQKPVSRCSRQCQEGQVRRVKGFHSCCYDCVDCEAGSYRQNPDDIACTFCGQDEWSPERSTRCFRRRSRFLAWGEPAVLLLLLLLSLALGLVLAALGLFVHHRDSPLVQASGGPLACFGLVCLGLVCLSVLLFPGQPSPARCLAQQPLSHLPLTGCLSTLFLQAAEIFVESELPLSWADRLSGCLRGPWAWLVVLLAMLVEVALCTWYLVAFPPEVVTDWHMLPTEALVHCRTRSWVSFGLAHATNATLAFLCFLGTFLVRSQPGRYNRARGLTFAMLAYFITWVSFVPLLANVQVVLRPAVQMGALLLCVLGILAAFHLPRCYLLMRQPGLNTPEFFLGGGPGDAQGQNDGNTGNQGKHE

Structure (SMILES) | EC50 [µM]
CC[C@@H](C)[C@@](C)(NC(=O)c1ccc2c(c1)OCO2)C(=O)OC [Compound A42] | 0.35
CCCC[C@@H](NC(=O)c1ccc2c(c1)OCO2)C(=O)OC [Compound A44] | 0.61
CCCC(CCC)NC(=O)c1cccc(OC)c1 [Compound A84] | 0.53
COc1ccc(CNC(O)c2ccccc2-c2ccccc2)c(OC)c1 (stereo not drawn) [Compound A104] | 1.37

same assay, conditions: clone I-17, with and without IMP

Structure (SMILES) | activation of T1R1/T1R3 receptor by L-amino acids
N[C@@H](CC(=O)O)C(=O)O [L-aspartate, reference compound] | significantly activated

molecular target: T1, T1R1/T1R3; assay: Umami enhancement assay: MSG dose response with and without compound; type: cell-based; conditions: Table 1; compound @ 0.01 uM
Method: In enhancement assay experiments, a MSG dose response was run and a second MSG dose response was run with a certain amount of candidate compound at every MSG concentrations at the same time. Then, the EC50 ratio is calculated based on the following definitions: EC50 Ratio=EC50(MSG)/EC50(MSG+[Compound])
wherein “[compound]” refers to the concentration of compound used to elicit (or enhance or potentiate) the MSG dose response. Those concentrations can vary from a pM to an mM, more preferred, from a low nM to μM.
as §1

Structure (SMILES) | Ec50 ratio (vs. MSG)
COC(=O)c1ccc(NC(=O)c2c(Cl)ccc(Cl)c2OC)cc1 [Compound A2] | 6.98

same assay, conditions: Table 1; compound @ 0.03 uM

Structure (SMILES) | Ec50 ratio (vs. MSG)
CCOc1ccc(NC(=O)c2cc(Cl)ccc2Cl)cc1 [Compound A3] | 6.14

same assay, conditions: Table 1; compound @ 0.1 uM

Structure (SMILES) | Ec50 ratio (vs. MSG)
CCCC(C)NC(=O)c1ccc(OC)c(Cl)c1 (stereo not drawn) [Compound A80] | 5.12
O=C(N[C@H]1CCCc2ccccc21)c1ccc2c(c1)OCO2 [Compound A47] | 6.42

same assay, conditions: Table 1; compound @ 0.3 uM

Structure (SMILES) | Ec50 ratio (vs. MSG)
C=Cc1ccc(C(=O)NC(CCC)CCC)cc1 [Compound A78] | 10.22
CCC(COC)NC(=O)c1cc2cc(Cl)ccc2o1 (stereo not drawn) [Compound A11] | 6.5
CCCC(CCC)NC(=O)c1ccc(OC)c(F)c1 [Compound A74] | 4.98
CCCC(CCC)NC(=O)c1ccc(OCC)cc1 [Compound A68] | 2.62
COc1ccc(C(=O)NC2CCc3ccccc32)cc1Cl (stereo not drawn) [Compound A106] | 4.01

same assay, conditions: Table 1; compound @ 1 uM

Structure (SMILES) | Ec50 ratio (vs. MSG)
CCCC(CCC)NC(=O)c1cc(C)c(C)o1 [Compound A31] | 10.04
COC(=O)C(CC(C)C)NC(=O)c1cc2cc(OC)ccc2o1 (stereo in doubt) [Compound A6] | 2.86
CCCC(CCC)NC(=O)c1ccc(C)s1 [Compound A38] | 6.54
CCCC(CCC)NC(=O)c1ccc(Br)o1 [Compound A30] | 12.6
CCC(CC)NC(=O)c1cc2cc(OC)ccc2o1 [Compound A13] | 4.46
CCC(CC)NC(=O)c1cc2ccccc2o1 [Compound A21] | 3.74
COc1cccc(C(=O)N[C@H]2CCCc3ccccc32)c1O [Compound A93] | 5.7
CC(CCc1ccccc1)NC(=O)c1ccc2c(c1)OCO2 (stereo not drawn) [Compound A48] | 9.27
C=Cc1ccc(C(=O)N[C@H]2CCCc3ccccc32)cc1 [Compound A105] | 2.79
Cc1ccc(C(=O)NC2CCCc3ccccc32)s1 (stereo not drawn) [Compound A39] | 2.3
COc1ccc([C@@H](C)NC(=O)c2ccc(OC)c(Cl)c2)cc1 [Compound A89] | 2.85
Cc1cc(C(=O)NC2CCCc3ccccc32)ccc1O (stereo not drawn) [Compound A102] | 9.49
CCCC(CCC)NC(=O)c1ccc2cc[nH]c2c1 [Compound A35] | 8.81
COc1cccc(C(=O)NC2CCCc3ccccc32)c1O (stereo not drawn) [Compound A87] | 3.8
CCCC(CCC)NC(=O)c1ccc(OC)cc1O [Compound A101] | 7.62
CCOc1ccc(NC(=O)c2c(Cl)ccc(Cl)c2OC)cc1 [Compound A1] | 2.74
CCCC(NC(=O)c1ccc2c(c1)OCO2)C(=O)OC (stereo not drawn) [Compound A49] | 9.53

same assay, conditions: Table 1; compound @ 3 uM

Structure (SMILES) | Ec50 ratio (vs. MSG)
CCCCC(CCCC)NC(=O)c1ccc2c(c1)OCO2 [Compound A41] | 2.14

same assay, conditions: Table 3; Con. 0.3 uM

Structure (SMILES) | Ec50 ratio (vs. MSG)
COc1ccc(NC(=O)NC2CCCCC2C)c(OC)c1 (stereo not drawn) [Compound C8, 1-(2,4-dimethoxyphenyl)-3-(2-methylcyclohexyl)urea] | 2.62
CCOc1ccc(NC(=O)NC2CCCCC2C)cc1 (stereo not drawn) [Compound C10, 1-(4-ethoxyphenyl)-3-(2-methylcyclohexyl)urea] | 2.1

same assay, conditions: Table 3; Con. 1 uM

Structure (SMILES) | Ec50 ratio (vs. MSG)
O=C(Nc1ccccc1Cl)NC1CCCc2ccccc21 (stereo not drawn) [Compound C7, 1-(2-chlorophenyl)-3-(1,2,3,4-tetrahydronaphthalen-1-yl)urea] | 3.68
CCCC(CCC)NC(=O)Nc1ccccc1Cl [Compound C1, 1-(2-chlorophenyl)-3-(heptan-4-yl)urea] | 4.95
CCC(CC)NC(=O)Nc1ccc(OC)cc1OC [Compound C13, 1-(2,4-dimethoxyphenyl)-3-(pentan-3-yl)urea] | 11.87
CCC(NC(=O)Nc1ccc(Cl)cc1Cl)c1ccccc1 (stereo not drawn) [Compound C2, 1-(2,4-dichlorophenyl)-3-(1-phenylpropyl)urea] | 4.52
O=C(Nc1ccccc1F)NC1CCCc2ccccc21 (stereo not drawn) [Compound C11, 1-(2-fluorophenyl)-3-(1,2,3,4-tetrahydronaphthalen-1-yl)urea] | 4.49
CC(NC(=O)Nc1ccccc1Cl)C1CCCCC1 (stereo not drawn) [Compound C5, 1-(2-chlorophenyl)-3-(1-cyclohexylethyl)urea] | 9.08

same assay, conditions: Table 3; Con. 3 uM

Structure (SMILES) | Ec50 ratio (vs. MSG)
CCCC(CCC)NC(=O)Nc1ccccc1F [Compound C4, 1-(2-fluorophenyl)-3-(heptan-4-yl)urea] | 12.15
CC1CCCCC1NC(=O)Nc1ccccc1Cl (stereo not drawn) [Compound C3, 1-(2-chlorophenyl)-3-(2-methylcyclohexyl)urea] | 3.24

same assay, conditions: Table 4; compound @ 0.3 uM

Structure (SMILES) | Ec50 ratio (vs. MSG)
CCCC(CCC)NC(=O)/C=C/c1ccsc1 [Compound D15, (E)-N-(heptan-4-yl)-3-(thiophen-3-yl)acrylamide] | 2.22
CCCC(CCC)NC(=O)/C=C/c1ccc(OC)cc1 [Compound D5, (E)-N-(heptan-4-yl)-3-(4-methoxyphenyl)acrylamide] | 3.48
CCOc1ccc(/C=C/C(=O)NC(C)CC)cc1 (stereo not drawn) [Compound D13, (E)-N-sec-butyl-3-(4-ethoxyphenyl)acrylamide] | 2.7

same assay, conditions: Table 4; compound @ 1 uM

Structure (SMILES) | Ec50 ratio (vs. MSG)
COc1ccc(/C=C/C(=O)NC(C(C)C)C(C)C)cc1 [Compound D1, (E)-N-(2,4-dimethylpentan-3-yl)-3-(4-methoxyphenyl)acrylamide] | 3.46
CCCC(CCC)NC(=O)/C=C/c1cccs1 [Compound D6, N-(1-Propyl-butyl)-3-thiophen-2-yl-acrylamide] | 6.3
CCC(COC)NC(=O)/C=C/c1ccc(OC)cc1 (stereo not drawn) [Compound D14, (E)-N-(1-methoxybutan-2-yl)-3-(4-methoxyphenyl)acrylamide] | 8.48
CCC(CC)NC(=O)/C=C/c1ccc(OC)cc1 [Compound D7, (E)-3-(4-methoxyphenyl)-N-(pentan-3-yl)acrylamide] | 9.62
CC(CCc1ccccc1)NC(=O)/C=C/c1cccs1 (stereo not drawn) [Compound D4, N-(1-Methyl-3-phenyl-propyl)-3-thiophen-2-yl-acrylamide] | 9.73
COc1ccc(/C=C/C(=O)NC(C)CCc2ccccc2)cc1OC (stereo not drawn) [Compound D16, (E)-3-(3,4-dimethoxyphenyl)-N-(4-phenylbutan-2-yl)acrylamide] | 3.13

same assay, conditions: Table 5; compound concentration not given

Structure (SMILES) | Umami EC50 ratio
COc1c(Cl)ccc(Cl)c1C(=O)Nc1ccccc1F [Compound E84, 3,6-dichloro-N-(2-fluorophenyl)-methoxybenzamide] | 16.51
CC1CCCCC1NC(=O)c1cccc(C(F)(F)F)c1 (stereo not drawn) [Compound E59, N-(2-methylcyclohexyl)-3-(trifluoromethyl)benzamide] | 2.07
O=C(NC1CCCc2ccccc21)c1cccc(Cl)c1O (stereo not drawn) [Compound E7, 3-chloro-2-hydroxy-N(-1,2,3,4-tetrahydronaphthalen-1-yl)benzamide] | 4.04
COc1cc(C(=O)NC2CCCCC2C)cc(Cl)n1 (stereo not drawn) [Compound E40, 2-chloro-6-methoxy-N-(2-methylcyclohexyl)isonicotinamide] | 9.77
CC1CCCCC1NC(=O)c1ccnc(Cl)c1 (stereo not drawn) [Compound E56, 2-chloro-N-(2-methylcyclohexyl)isonicotinamide] | 2.08
CC1CCCCC1NC(=O)c1ccc(F)c(F)c1 (stereo not drawn) [Compound E81, 3,4-difluoro-N-(2-methylcyclohexyl)benzamide] | 6.98
